How the values were obtained:
[1] = system: HCT116 colon cancer cells; assay: Apoptotic nuclei in HCT116 cells transfected with DNA vectors expressing the constructs; assay type: cell-based
Description: FIG. 1 is a graph reporting exemplary data showing 3-box dominant negative forms of CEBPD promote apoptotic death of cancer cells. Replicate cultures of HCT116 colon cancer cells were transfected with DNA vectors expressing D-mut (a control peptide containing only the leucine zipper domain of CEBPD with all leucines in position 5 (also referred to as position “d”) of the heptad repeats mutated to glycine to suppress leucine zipper binding activity), D-1234, D-123, and D-234. Three days later, transfected cells were scored for proportion with apoptotic nuclei. Data represent means±SEM (n=4). P values vs D-mut (T-test): D-1234, p=0.0005; D-123, p=0.0014; D-234, p=0.0003.
FIG. 2 is a graph reporting exemplary data showing 2-box dominant negative forms of CEBPD promote apoptotic death of cancer cells. Replicate cultures of HCT116 cells were transfected with DNA vectors expressing D-mut, D-1234, D-12, D-23, or D-34. Three days later, transfected cells were scored for proportion with apoptotic nuclei. Data represent means±SEM (n=12 from 3 independent experiments). P values vs D-mut: D-1234, p<0.0001; D-12, p=0.056; D-23, p<0.001; D-34, p=0.0008.
FIG. 12 is a graph reporting exemplary data showing D-123EWE and D-123EKE peptides promote apoptotic death of cancer cells. Replicate cultures of HCT116 cells were transfected with an empty DNA vector or DNA vectors expressing D-123, D-123EWE, or D-123EKE. Two days later, transfected cells were scored for proportion with apoptotic nuclei. Data are pooled from two independent experiments, each with n=4. Data represent means±SEM.

[2] = system: T98G, MDA-MB-231, A375, Shep21N, and CHLA255 cell lines; assay: Cell numbers after 6 days of peptide treatment in a panel of cancer cell lines; assay type: cell-based; details: medium with 2% fetal bovine serum, five cell lines
Protocol: FIGS. 3A-3E are graphs reporting exemplary data showing truncated dominant negative forms of CEBPD reduce cancer cell numbers. Replicate cultures of T98G (FIG. 3A), MDA-MB-231 (FIG. 3B), A375 (FIG. 3C), Shep21N (FIG. 3D), and CHLA255 (FIG. 3E) cell lines were treated with CP-D-123 at the indicated concentrations for 6 days in culture medium containing 2% fetal bovine serum and then assessed for cell numbers. Values are given as means±SEM (N=3 replicate cultures).
FIGS. 4A-4E are graphs reporting exemplary data showing truncated dominant negative forms of CEBPD reduce cancer cell numbers. Replicate cultures of T98G (FIG. 4A), MDA-MB-231 (FIG. 4B), A375 (FIG. 4C), Shep21N (FIG. 4D), and CHLA255 (FIG. 4E) cell lines were treated with CP-D-123, CP-D-234, and Bpep (at 20 μM in T98G, MDA-MB-231, A375 only) at the indicated concentrations for 6 days in culture medium containing 2% fetal bovine serum and then assessed for cell numbers. Values are given as means±SEM (N=3 replicate cultures).

[3] = HCT116, three days after transfection, control D-mut
[4] = HCT116, two days after transfection, compared with D-123

Substance	Proportion of transfected cells with apoptotic nuclei [1, 3]	further results
KLVELSAENEKLHQ (SEQ ID NO: 54 - D-12) [Construct D-12]	active in causing apoptosis	
ENEKLHQRVEQLTR (SEQ ID NO: 56 - D-23) [Construct D-23]	active in causing apoptosis	
RVEQLTRDLAGLRQ (SEQ ID NO: 58 - D-34) [Construct D-34]	active in causing apoptosis	
ELVELEA KNEKLKQ EVEQLER (ELVELEAKNEKLKQEVEQLER; SEQ ID NO: 100 - D-123EKE) [Construct D-123EKE]		Proportion of transfected cells with apoptotic nuclei [1, 4]: activity comparable or greater to that of the D-123 peptide
RQIKIWFQNRRMKWKKENEKLHQRVEQLTRDLAGLRQ (SEQ ID NO: 53 - CP-D-234)		Reduction of cell numbers [2]: lower and less consistent in activity than CP-D-123
ELVELEA ENEKLHQ EVEQLER (ELVELEAENEKLHQEVEQLER; SEQ ID NO: 90 - D-123EWE) [Construct D-123EWE]		Proportion of transfected cells with apoptotic nuclei [1, 4]: activity comparable or greater to that of the D-123 peptide
ENEKLHQRVEQLTRDLAGLRQ (SEQ ID NO: 52 - D-234) [Construct D-234]	comparable rates to the full length D-1234 construct	
KLVELSAENEKLHQRVEQLTR (SEQ ID NO: 50 - D-123) [Construct D-123]	comparable rates to the full length D-1234 construct	

From patent publication US20250223328A1, “TRUNCATED DOMINANT NEGATIVE CEBPB AND CEBPD PROTEINS AND METHODS OF USE FOR DECREASING VIABILITY OF NEOPLASTIC CELLS” (The Trustees of Columbia University in the City of New York, priority 2022, published 2025)
